# Assay results published in PMC9376960, “Ruthenium(II)–Tris-pyrazolylmethane Complexes Inhibit Cancer Cell Growth by Disrupting Mitochondrial Calcium Homeostasis” (Journal of Medicinal Chemistry, 2022).
# Tests used:
# [1] = tested on: RD; assay: MTT antiproliferative assay; format: cell-based, human; conditions: 72 h, mean ± SD
# Description: All of the cell lines were cultivated in DMEM medium (high glucose 4.5 g L^–1, PAA, Pasching, Austria) supplemented with gentamycin (50 μg mL^–1, Serva, Heidelberg, Germany) and 10% heat-inactivated fetal bovine serum (PAA). The medium for MRC5pd30 cells was further supplemented by 1% nonessential amino acids (Sigma-Aldrich, Prague, Czech Republic). All cells were cultured as adherent monolayers in a humidified incubator at 37 °C in a 5% CO2 atmosphere and subcultured twice a week with an appropriate plating density. In vitro antiproliferative activity of Ru complexes was determined by the MTT or, alternatively, SRB assay as already described,[84] after 72 h of incubation of cells with various concentrations of the Ru complex. The reported IC50 values are an average of three independent experiments, each consisting of three replicates per concentration.
# [2] = tested on: CHO-K1; assay: MTT assay, wild-type cells; format: cell-based, Chinese hamster; conditions: 72 h
# Excerpt: (§1) The human cervical carcinoma HeLa cells and human colorectal carcinoma cells HCT116 were kindly supplied by Professor B. Keppler, University of Vienna (Austria). Human rhabdomyosarcoma RD cells were purchased from the American Type Culture Collection (ATCC, Manassas, VA). Human breast cancer MCF-7 cells, human skin melanoma 518A2 cells, and human MRC5pd30 cells derived from normal lung tissue were purchased from the European Collection of Authenticated Cell Cultures (ECACC) (Salisbury, U.K.). Chinese hamster ovary CHO-K1 cell line (wild type) and its derivative MMC-2 carrying the ERCC3/XPB mutation (NER-deficient) cell line were kindly supplied by Dr. […], Cancer Research Institute, Slovak Academy of Sciences, Bratislava (Slovakia). In vitro antiproliferative activity of Ru complexes was determined by the MTT or, alternatively, SRB assay as already described,[84] after 72 h of incubation of cells with various concentrations of the Ru complex. The reported IC50 values are an average of three independent experiments, each consisting of three replicates per concentration.
# [3] = tested on: MMC-2; assay: MTT assay, NER-deficient cells; format: cell-based, Chinese hamster; conditions: 72 h
# Excerpt: as §1
# [4] = tested on: HCT116 (3D); assay: Cytotoxicity in 3D spheroids (colonospheres), Cell Titer-Glo 3D; format: cell-based, human
# Description: A spontaneous spheroid formation was used to generate colonospheres derived from the HCT116 cell line. The HCT116 cells were seeded on 96-well ultralow attachment plates (1400 cells/well) and cultivated in a tumor sphere-forming medium (DMEM/F12, supplemented with B27 (Invitrogen), BSA, bFGF (10 ng mL^–1), and EGF (20 ng mL^–1)) for 4 days. After the incubation period, colonospheres were treated with Ru complexes for another 3 days. The viability of colonospheres was determined by the Cell Titer-Glo 3D cell viability assay (Promega) according to the manufacturer’s instructions. The reported IC50 values are the average of three independent experiments, each consisting of three replicates per concentration level. Bright-field images of the spheroids were taken as well to determine the effect on the morphology of the spheroids.
# [5] = tested on: MCF-7; design: method as in PMID 30740808; conditions: MTT, 72 h; cited from earlier work
# [6] = tested on: HeLa; design: method as in PMID 30740808; conditions: MTT, 72 h; cited from earlier work
# [7] = tested on: 518A2; design: method as in PMID 32555811; conditions: MTT, 72 h; cited from earlier work
# [8] = tested on: HCT116; design: method as in PMID 30740808; conditions: MTT, 72 h; cited from earlier work
# [9] = tested on: MRC5pd30; design: method as in PMID 30740808; conditions: MTT, 72 h; cited from earlier work
# [10] = tested on: DNA; design: method as in PMID 25888926, PMID 28623355; conditions: cited from earlier work
structure (smiles),measurement,setting,value
N.N.[Cl][Pt][Cl] [cisplatin],IC50,[1],4.6 ± 0.3 µM
same,IC50,[2],54 ± 6 µM
same,IC50,[3],5.5 ± 0.8 µM
same,effect on the morphology of 3D spheroids,"[4]; 20 µM, 72 h, bright-field images",heterogeneous morphology with several dissociated cell clumps
same,IC50,"[4]; Cell Titer-Glo, spheroids, 72 h of treatment",44.6 ± 1.8 µM
same,IC50,[5],13 ± 3 µM
same,IC50,[6],14 ± 3 µM
same,IC50,[7],2.6 ± 0.7 µM
same,IC50,[8],8 ± 1 µM
same,IC50,[9],11.7 ± 0.8 µM
same,intracellular platinum that reaches the nucleus and binds to DNA,[10],2–3%
